In paper PMC8078777 (PLoS Pathogens, 2021):
≈ marks a conversion by molar mass, not a printed value. Where “and” joins values, the source holds several entries; their conditions need not be identical. Equal entries are not always repeated. Entries after “also recorded” stand apart in the source; their conditions may differ.

Legend:
[1] = target: T1, NLPPya (Pythium aphanidermatum, UniProt Q9SPD4); test: Surface plasmon resonance binding to immobilized NLPPya; details: for Kd: SPR, steady-state affinity model, 50 mM MES, 150 mM NaCl, 5% DMSO, pH 5.8; for SPR binding to NLPPya (in words): sensor-chip-immobilized NLPPya
Method: Biacore T100 equipped with the Series S Sensor chip CM5 (GE Healthcare) was used to assess the binding of compounds to NLPPya and NLPPp. The proteins were covalently immobilized to the chip using amine coupling. The surface was activated with a 10 min injection of a mixture of 1-ethyl-3-(3-dimethylaminopropyl) carbodiimide hydrochloride / N-hydroxysuccinimide (1:1). NLPs were immobilized on the second flow cell. The first flow cell was left empty to control any nonspecific compound binding to the dextran matrix. […] In total, 587 in-house compounds (Faculty of Pharmacy, University of Ljubljana) were dissolved in DMSO as stock solutions at a concentration of 10 mM and diluted in 50 mM 2-(N-morpholino)ethanesulfonic acid (MES) and 150 mM NaCl to a final concentration of 5% DMSO (pH 5.8) prior to SPR experiments. After washing the sensor surface with running buffer (50 mM MES, 150 mM NaCl, 5% DMSO, pH 5.8), the compounds were tested at two different concentrations: 20 and 200 μM. Certain compounds were tested at lower concentrations owing to their lower solubility in the running buffer. Each compound was injected for 1 min at a flow rate of 30 μL/min, and dissociation was monitored for another minute. […] In the next set of experiments, 67 selected compounds were titrated. The samples were injected for 1 min at a flow rate of 30 μL/min, and dissociation was monitored for another minute. The samples were typically injected at the following concentrations: 0, 12.5, 25, 50, 100, and 200 μM. At the end of each concentration series, 25 μM of compound was injected again to control the activity of the surface. Regeneration between individual injections was not needed for molecules that completely dissociated from the protein. When complete dissociation was not achieved, short pulses of 0.1% SDS were included. The obtained sensorgrams were analyzed using the Biacore T100 Evaluation software, and the steady-state affinity binding model was used to calculate affinity constants.

[2] = tested on: tobacco leaves; test: Tobacco leaf infiltration assay, compounds alone; type: in vivo, Nicotiana tabacum; details: 1 mM compound in 5% DMSO, 24 h
Method: (§1) Tobacco plants (Nicotiana tabacum ‘White Burley’) were grown in a controlled growth chamber with supplementary light (70−90 μMm^-2s^-1) and a 16 h photoperiod with 22°C day and 20°C night temperatures at 75±2% humidity. Using blunt-ended syringe pressure infiltration, 100 μL of solution (either 400 nM NLPPp or 250 nM NLPPya in ultrapure water in the absence or presence of the compounds) was infiltrated abaxially into the leaves of 5−7-week-old tobacco plants (Nicotiana tabacum ‘White Burley’). 5% DMSO, NLP solutions, and appropriate compound dilutions were used as controls. The area on the upper side of the leaf, which was infiltrated with solutions, was labeled and checked for the presence of necrosis after 24 h. To thoroughly assess the effect of compound 6G7 on the level of leaf necrosis/chlorosis, 50 μL of 100 nM NLPPya solution without/with 500 μM or 1 mM 6G7 in 20 mM MES, 150 mM NaCl, pH 5.8, containing 10% DMSO was infiltrated. The level of leaf chlorosis was estimated using ImageJ software by calculating the ratio of the chlorotic area to the whole infiltrated area, both measured in squared pixels. Each value represents the average of sixteen infiltrations.

[3] = target: T1, NLPPya; test: Tobacco leaf infiltration assay, NLPPya-induced necrosis/chlorosis; type: in vivo; details: 24 h; for effect on NLPPya-induced necrosis: 200 nM NLPPya, tobacco leaves
Method: as §1, with “([…]” for “(either 400 nM NLPPp or 250 nM NLPPya in ultrapure water in the absence or presence”, “To thoroughly assess the effect of compound 6G7 on the level of leaf necrosis/chlorosis, 50 μL of 100 nM NLPPya solution without/with 500 μM or 1 mM 6G7 in 20 mM MES, 150 mM NaCl, pH 5.8, containing 10% DMSO was infiltrated.” left out

[4] = tested on: Phytophthora infestans; type: in vivo; details: for P. infestans infection spots on potato leaves (size and coloring): 1 mM compound applied with zoospores, 4 days; for P. infestans growth on potato leaves by real-time PCR: 1 mM compound, 4 days after infection, vs control compound 6E11
[5] = tested on: Caco-2 cells; test: Caco-2 cell toxicity, MTT assay; type: cell-based, human; details: overnight
Method: (§2) Caco-2 cells were seeded onto microtiter 96-well plates at a density of 70,000 cells/mL in 50 µL of minimal essential medium (Sigma) supplemented with 10% fetal bovine serum (Sigma), 1% L-glutamine (Gibco), and 1% non-essential amino acids (Sigma). Cells were incubated for two days at 37 °C in a humidified atmosphere containing 5% CO2. Then the cells were treated with the selected compounds at different concentrations: 6G7 and 6C3 were added at concentrations of 0.0625, 0.125, 0.25, 0.5, 1, and 2 mM, and 7C8 at concentrations of 3.125, 6.25, 12.5, 25, 50, and 100 μM. The final DMSO concentration in the medium was adjusted as indicated by the solubility of individual compounds and was reduced proportionally with serial dilutions. The highest DMSO concentration in assays was 5%. After overnight incubation, the cell viability was assessed by the MTT assay. Briefly, 3-(4,5-dimethylthiazol-2-yl)-2,5-diphenyltetrazolium bromide (MTT) reagent was added to each well at a final concentration of 1 mg/mL and incubated for 3 h. The medium was then removed, and the formazan product of living cells was dissolved in DMSO. The absorbance was measured at 570 nm with a Fluostar Galaxy microplate reader. Three independent experiments with the compounds 6C3 and 7C8 and four independent experiments with the compound 6G7 were performed.

[6] = target: T1, NLPPya; test: STD-NMR binding to NLPPya; details: 25°C
Method: STD-NMR experiments were performed with 8 μM NLPPya. A pseudo-2D version of a STD-NMR pulse sequence with DPFGSE water suppression for the interleave acquisition of on- (δ 0.2 ppm) and off-resonance (δ 40 ppm) spectra was used at 25°C with 512 scans. A 30 ms spin-lock filter was used for protein signal suppression. The STD spectra were obtained by subtracting the saturated spectra from the reference spectra. The STD effect was calculated by (I0-Isat)/I0, where I0 is the signal intensity in the off-resonance spectrum, Isat is the signal intensity in the on-resonance spectrum, and I0-Isat is the intensity of the STD-NMR spectrum. Appropriate control experiments in the absence of protein were performed to assure the absence of direct irradiation of the ligand. In the titration study, five STD experiments were performed with varying ligand concentrations (40, 80, 240, 400, and 560 μM).
The STD amplification factor (STD-AF) was determined according to Eq 1, where [L] is the ligand concentration, and [P] is the NLPPya concentration.
The hyperbolic behavior of the curves obtained from plotting STD-AF as a function of ligand concentration is appropriately described by Eq 2, where STD-AF is the STD amplification factor, αSTD is the maximum amplification factor, [L] is the ligand concentration, and KD is the dissociation constant. […]

[7] = target: T1, NLPPya; test: Ion leakage from tobacco leaf disks induced by NLPPya; type: in vivo; details: 100 nM NLPPya, conductivity after 2 h
Method: Tobacco leaves were infiltrated with 100 nM NLPPya in 20 mM MES, 150 mM NaCl pH 5.8, preincubated for 10 min with 500 μM or 1 mM 6G7. Final concentration of DMSO in solution was 10%. After 10 min incubation, 2 leaf disks were punched out (Ø 6 mm) and transferred to 2 mL of deionized distilled water. After 30 min of shaking at 430 rpm, leaf disks were transferred to 1 mL of fresh deionized distilled water. Conductivity was measured after 2 h using SevenCompact Cond meter (Mettler Toledo). Mock treated samples were discs from leaves infiltrated with buffer containing 10% DMSO or 6G7. Each value represents the average of 12–18 independent experiments.

[8] = Caco-2 cell toxicity, MTT assay; type: cell-based, human; details: human, Caco-2, 12.5 μM, overnight, read-out: Caco-2 cell viability, of the untreated control
Method: as §2

[9] = Solubility in SPR running buffer; type: physicochemical; details: SPR running buffer containing 5% DMSO

T1 sequence (Q9SPD4 18-234 limits assumed): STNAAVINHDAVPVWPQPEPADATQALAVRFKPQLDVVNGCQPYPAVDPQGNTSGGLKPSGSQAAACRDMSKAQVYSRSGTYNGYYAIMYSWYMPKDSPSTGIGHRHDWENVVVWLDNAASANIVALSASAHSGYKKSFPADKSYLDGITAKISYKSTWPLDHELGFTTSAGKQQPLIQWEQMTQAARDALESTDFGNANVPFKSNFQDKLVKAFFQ

Row | Structure (SMILES) | Kd [1] | toxic effects of compound alone on leaf tissue [2] | NLPPya-induced leaf chlorosis ([3]; 100 nM NLPPya, 1 mM compound, buffer with 10% DMSO) | effect on NLPPya-induced necrosis ([3]; 1 mM compound) | P. infestans infection spots on potato leaves (size and coloring) [4] | P. infestans growth on potato leaves by real-time PCR [4] | effect on Caco-2 cell viability ([5]; up to concentrations approximately 10 times higher than its KD for NLPs) | STD signals in the presence of NLPPya ([6]; 400 μM ligand, 1:50 receptor-to-ligand ratio) | Kd ([6]; STD-NMR titration, 8 μM NLPPya) [µM] | ion leakage induced by NLPPya from tobacco cells ([7]; 500 μM compound) | ion leakage induced by NLPPya from tobacco cells ([7]; 1 mM compound) | SPR binding to NLPPya (in words) [1] | effect on NLPPya-induced necrosis ([3]; 200 μM compound) | viability at 12.5 µM [8] [%] | reduction of Caco-2 cell viability ([5]; 3.125 μM) [%] | solubility limit [9] | solubility ([9]; pH 5.8, aqueous with cosolvent or surfactant or cyclodextrin, kinetic from dmso stock, read-out: solubility limit) [µM] | reduction of Caco-2 cell viability ([5]; 1 mM) [%] | reduction of Caco-2 cell viability ([5]; 2 mM) [%] | effect on Caco-2 cell viability ([5]; concentrations below 500 μM)
1 | COc1ccc(Nc2ccccc2C(=O)O)cc1 [6G7, 2-((4-methoxyphenyl)amino)benzoic acid] | 131 ± 36.4 µM | did not affect the plant tissue | efficiently reduced | inhibited | largely reduced or disappeared | significantly reduced; also recorded: significantly inhibited | did not affect cell viability; also recorded: non-toxic | clear STD signals | 150 ± 7 | efficiently inhibit | efficiently inhibit |  |  |  |  |  |  |  |  | 
2 | Cc1oc([C@@H](O)[C@H](O)[C@H](O)CO)cc1C(=O)O [6E11, 2-methyl-5-((1S,2R,3R)-1,2,3,4-tetrahydroxybutyl)furan-3-carboxylic acid, reference compound] |  | did not affect the plant tissue |  |  |  |  |  |  |  |  |  | did not bind |  |  |  |  |  |  |  | 
3 | O=C(Cc1c[nH]c2ccccc12)Nc1ccccc1CCOC(=O)Cc1c[nH]c2ccccc12 [7C8, 2-(2-(1H-indol-3-yl)acetamido)phenethyl 2-(1H-indol-3-yl)acetate] | 52.8 µM and ~50 µM | did not affect the plant tissue |  |  | largely reduced or disappeared | significantly reduced |  |  |  |  |  |  | inhibited | 20 | 35 | poorly soluble at concentrations of >180 | ~180 (≈ 81.3 µg/mL) |  |  | 
4 | Cc1ccc2occ(C3N[C@H](C(=O)O)CS3)c(=O)c2c1 (stereo partly drawn) [6C3, (4R)-2-(6-methyl-4-oxo-4H-chromen-3-yl)thiazolidine-4-carboxylic acid] |  | did not affect the plant tissue |  | inhibited | largely reduced or disappeared | significantly reduced |  |  |  |  |  | stable binding |  |  |  |  |  | 8 | 15 | did not affect cell viability
